# According to patent US10463671B2, “Combination therapy for treating cancer” (Epizyme, Inc., priority 2013, dated 2019):
# System: glucocorticoid signaling genes in SU-DHL4 cells
# Test: RT2 Glucocorticoid Signaling PCR array
# Format: cell-based
# Design: IL10 Ct Values / TNF Ct Values: unit not given here
# Settings: SUDHL4 cell line, 4 days
structure (smiles),measurement,setting,value
CCN(c1cc(-c2ccc(CN3CCOCC3)cc2)cc(C(=O)NCc2c(C)cc(C)[nH]c2=O)c1C)C1CCOCC1 [Compound 44],ACTB Ct Values,,14.247
same,ADARB1 Ct Values,,28.562
same,AFF1 Ct Values,,25.936
same,AK2 Ct Values,,20.311
same,AMPD3 Ct Values,,25.553
same,ANGPTL4 Ct Values,,29.825
same,ANXA4 Ct Values,,28.717
same,ARID5B Ct Values,,25.129
same,ASPH Ct Values,,23.348
same,ATF4 Ct Values,,18.778
same,B2M Ct Values,,18.971
same,BCL6 Ct Values,,21.075
same,CEBPA Ct Values,,31.206
same,CEBPB Ct Values,,23.911
same,CREB1 Ct Values,,22.973
same,CREB3 Ct Values,,24.566
same,CREB3L4 Ct Values,,25.089
same,CYB561 Ct Values,,36.737
same,DDIT4 Ct Values,,21.455
same,DUSP1 Ct Values,,26.325
same,EDN1 Ct Values,,33.297
same,EHD3 Ct Values,,25.766
same,FKBP5 Ct Values,,20.494
same,FOSL2 Ct Values,,31.757
same,GAPDH Ct Values,,15.835
same,GDPD1 Ct Values,,28.134
same,GHRHR Ct Values,,37.623
same,GLUL Ct Values,,35.795
same,GOT1 Ct Values,,22.607
same,H6PD Ct Values,,25.743
same,HAS2 Ct Values,,35.628
same,HNRPLL Ct Values,,22.977
same,HPRT1 Ct Values,,21.358
same,IL6R Ct Values,,33.589
same,IL10 Ct Values,,33.099
same,KLF9 Ct Values,,27.456
same,KLF13 Ct Values,,22.649
same,MT2A Ct Values,,24.175
same,NFKBIA Ct Values,,22.909
same,NR3C1 Ct Values,,22.803
same,PDCD7 Ct Values,,24.858
same,PDP1 Ct Values,,26.112
same,PER1 Ct Values,,24.926
same,PER2 Ct Values,,24.371
same,PIK3R1 Ct Values,,23.440
same,PLEKHF1 Ct Values,,27.868
same,POU2F1 Ct Values,,24.224
same,POU2F2 Ct Values,,21.920
same,RASA3 Ct Values,,23.207
same,RGS2 Ct Values,,25.145
same,RHOB Ct Values,,32.584
same,RPLP0 Ct Values,,15.469
same,SGK1 Ct Values,,25.808
same,SLC10A6 Ct Values,,34.857
same,SLC19A2 Ct Values,,27.465
same,SLC22A5 Ct Values,,28.544
same,SNTA1 Ct Values,,24.797
same,SPHK1 Ct Values,,30.619
same,SPSB1 Ct Values,,26.495
same,STAT5A Ct Values,,25.174
same,STAT5B Ct Values,,22.153
same,TBL1XR1 Ct Values,,20.805
same,TNF Ct Values,,29.337
same,TNFAIP3 Ct Values,,28.521
same,TSC22D3 Ct Values,,21.432
same,USP2 Ct Values,,21.342
same,USP54 Ct Values,,26.952
same,VDR Ct Values,,28.330
same,VLDLR Ct Values,,28.792
same,ZFP36 Ct Values,,24.706
same,ZHX3 Ct Values,,24.719
same,ZNF281 Ct Values,,23.881
same,AK2 ΔΔCT,compared to DMSO,−0.570
same,CREB3 ΔΔCT,compared to DMSO,−0.490
same,FKBP5 ΔΔCT,compared to DMSO,0.008
same,GOT1 ΔΔCT,compared to DMSO,0.065
same,TSC22D3 ΔΔCT,compared to DMSO,−0.002
same,ACTB ΔCT (B2M),normalized to B2M,−4.472
same,ADARB1 ΔCT (B2M),normalized to B2M,8.878
same,AFF1 ΔCT (B2M),normalized to B2M,7.118
same,AK2 ΔCT (B2M),normalized to B2M,1.846
same,AMPD3 ΔCT (B2M),normalized to B2M,6.024
same,ANGPTL4 ΔCT (B2M),normalized to B2M,10.570
same,ANXA4 ΔCT (B2M),normalized to B2M,8.217
same,AQP1 ΔCT (B2M),normalized to B2M,14.226
same,ARID5B ΔCT (B2M),normalized to B2M,5.748
same,ASPH ΔCT (B2M),normalized to B2M,3.985
same,ATF4 ΔCT (B2M),normalized to B2M,0.232
same,B2M ΔCT (B2M),normalized to B2M,0.000
same,BCL6 ΔCT (B2M),normalized to B2M,1.878
same,CEBPA ΔCT (B2M),normalized to B2M,10.026
same,CEBPB ΔCT (B2M),normalized to B2M,5.188
same,CREB1 ΔCT (B2M),normalized to B2M,4.237
same,CREB3L4 ΔCT (B2M),normalized to B2M,5.662
same,CREB3 ΔCT (B2M),normalized to B2M,5.665
same,CYB561 ΔCT (B2M),normalized to B2M,14.250
same,DDIT4 ΔCT (B2M),normalized to B2M,3.098
same,DIRAS2 ΔCT (B2M),normalized to B2M,14.626
same,DUSP1 ΔCT (B2M),normalized to B2M,7.998
same,EDN1 ΔCT (B2M),normalized to B2M,13.616
same,FKBP5 ΔCT (B2M),normalized to B2M,3.113
same,FOSL2 ΔCT (B2M),normalized to B2M,14.606
same,GAPDH ΔCT (B2M),normalized to B2M,−2.966
same,GDPD1 ΔCT (B2M),normalized to B2M,8.216
same,GLUL ΔCT (B2M),normalized to B2M,15.658
same,GOT1 ΔCT (B2M),normalized to B2M,4.103
same,H6PD ΔCT (B2M),normalized to B2M,6.063
same,HAS2 ΔCT (B2M),normalized to B2M,13.205
same,HNRPLL ΔCT (B2M),normalized to B2M,3.821
same,HPRT1 ΔCT (B2M),normalized to B2M,2.826
same,IL1RN ΔCT (B2M),normalized to B2M,17.503
same,IL6R ΔCT (B2M),normalized to B2M,13.239
same,IL10 ΔCT (B2M),normalized to B2M,12.363
same,KLF9 ΔCT (B2M),normalized to B2M,8.013
same,KLF13 ΔCT (B2M),normalized to B2M,4.078
same,MERTK ΔCT (B2M),normalized to B2M,15.103
same,MT2A ΔCT (B2M),normalized to B2M,4.766
same,NFKBIA ΔCT (B2M),normalized to B2M,4.260
same,NR3C1 ΔCT (B2M),normalized to B2M,4.025
same,PDCD7 ΔCT (B2M),normalized to B2M,5.357
same,PDGFRB ΔCT (B2M),normalized to B2M,16.449
same,PDP1 ΔCT (B2M),normalized to B2M,6.751
same,PER1 ΔCT (B2M),normalized to B2M,6.217
same,PER2 ΔCT (B2M),normalized to B2M,5.647
same,PIK3R1 ΔCT (B2M),normalized to B2M,4.859
same,PLEKHF1 ΔCT (B2M),normalized to B2M,8.928
same,POU2F1 ΔCT (B2M),normalized to B2M,5.110
same,POU2F2 ΔCT (B2M),normalized to B2M,3.085
same,RASA3 ΔCT (B2M),normalized to B2M,4.228
same,RGS2 ΔCT (B2M),normalized to B2M,5.914
same,RHOB ΔCT (B2M),normalized to B2M,11.328
same,RHOJ ΔCT (B2M),normalized to B2M,19.737
same,RPLP0 ΔCT (B2M),normalized to B2M,−3.490
same,SESN1 ΔCT (B2M),normalized to B2M,6.439
same,SGK1 ΔCT (B2M),normalized to B2M,7.757
same,SLC10A6 ΔCT (B2M),normalized to B2M,15.580
same,SLC19A2 ΔCT (B2M),normalized to B2M,7.877
same,SLC22A5 ΔCT (B2M),normalized to B2M,8.969
same,SNTA1 ΔCT (B2M),normalized to B2M,5.666
same,SPHK1 ΔCT (B2M),normalized to B2M,10.251
same,SPSB1 ΔCT (B2M),normalized to B2M,6.832
same,STAT5A ΔCT (B2M),normalized to B2M,6.005
same,STAT5B ΔCT (B2M),normalized to B2M,3.152
same,TBL1XR1 ΔCT (B2M),normalized to B2M,2.099
same,TNF ΔCT (B2M),normalized to B2M,10.753
same,TNFAIP3 ΔCT (B2M),normalized to B2M,9.051
same,TSC22D3 ΔCT (B2M),normalized to B2M,4.628
same,USP2 ΔCT (B2M),normalized to B2M,3.364
same,USP54 ΔCT (B2M),normalized to B2M,15.234
same,VDR ΔCT (B2M),normalized to B2M,8.200
same,VLDLR ΔCT (B2M),normalized to B2M,9.068
same,ZFP36 ΔCT (B2M),normalized to B2M,6.014
same,ZHX3 ΔCT (B2M),normalized to B2M,5.569
same,ZNF281 ΔCT (B2M),normalized to B2M,5.057
